PMC12131194, “Rational design, synthesis, and evaluation of novel polypharmacological compounds targeting NaV1.5, KV1.5, and K2P channels for atrial fibrillation” (The Journal of Biological Chemistry, 2025)

Key:
[1] = target: T1, human NaV1.5 (Homo sapiens, UniProt Q14524); test: Whole-cell patch-clamp in transfected HEK-293 cells, NaV1.5; assay type: cell-based; conditions: 10 μM and 100 μM, −10 mV
T1 construct: host or cells: HEK-293 (transient transfection)
Experimental: (§1) The human embryonic kidney 293 (HEK-293) cell line was obtained from the American Type Culture Collection. HEK-293 cells were cultured in Dulbecco’s modified Eagle’s medium (DMEM-F12, Invitrogen Life Technologies) supplemented with 5% (v/v) fetal bovine serum (FBS) (Thermo Fisher Scientific) and 1% antibiotics (penicillin 100 U/ml y streptomycin 100 μg/ml) (Gibco, Thermo Fisher). The cells were maintained at 37 °C and 5% CO2 atmosphere.
(§2) For the electrophysiological experiments, HEK-293 cells were transiently transfected with cDNA encoding human NaV1.5 (plasmid 145,374, Addgene), KV1.5 (NM_002234), and TASK-1 (NM_002246). […] The cells were incubated for 4 h in transfection medium OptiMEM (Invitrogen). […]
(§3) For Nav1.5, the effect of 6f at both concentrations was tested using a repetitive single test voltage pulse at −10 mV (during 20 ms) from a holding potential of −80 mV, with intervals of 5s between pulses. For Kv1.5 and TASK-1, ramp voltage protocols were applied with pulse intervals of 20 s, and the currents were analyzed at +40 mV.
(§4) After recording currents with stable amplitudes, the cells were treated with 6f and applied from the bath solution. Currents were continuously recorded during repetitive pulses until a stable effect was achieved. […] The inhibition percentage was calculated as follows: Inℎibition (%) = 100 ∗ (Icontrol − Idrug)/Icontrol.

[2] = target: T2, human Kv1.5 (Homo sapiens, UniProt P22460); test: Whole-cell patch-clamp in transfected HEK-293 cells, KV1.5; assay type: cell-based; conditions: 10 μM and 100 μM, +40 mV
T2 construct: KV1.5 (NM_002234), and TASK-1 (NM_002246); expressed in transfected cells; host or cells: HEK-293 (transient transfection)
Experimental: as §1, §2
as §3, with “mV. […]” for “mV.”
as §4

T2 sequence (P22460 whole entry): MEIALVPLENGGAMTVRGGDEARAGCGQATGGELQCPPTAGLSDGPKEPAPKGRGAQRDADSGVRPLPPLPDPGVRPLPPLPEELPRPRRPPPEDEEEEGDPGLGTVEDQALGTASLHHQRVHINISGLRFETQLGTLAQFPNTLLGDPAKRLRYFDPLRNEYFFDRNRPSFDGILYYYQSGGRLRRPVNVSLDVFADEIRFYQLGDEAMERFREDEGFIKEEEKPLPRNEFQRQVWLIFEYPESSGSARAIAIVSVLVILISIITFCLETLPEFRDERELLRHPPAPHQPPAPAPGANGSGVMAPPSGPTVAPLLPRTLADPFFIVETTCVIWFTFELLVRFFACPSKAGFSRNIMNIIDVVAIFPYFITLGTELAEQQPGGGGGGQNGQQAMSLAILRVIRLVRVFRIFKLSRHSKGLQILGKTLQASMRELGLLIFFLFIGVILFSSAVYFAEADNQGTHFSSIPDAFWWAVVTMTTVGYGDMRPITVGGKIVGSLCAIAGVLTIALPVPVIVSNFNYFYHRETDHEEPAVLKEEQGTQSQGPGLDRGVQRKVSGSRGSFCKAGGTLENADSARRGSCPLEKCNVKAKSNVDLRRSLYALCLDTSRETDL
T1 sequence (Q14524 whole entry): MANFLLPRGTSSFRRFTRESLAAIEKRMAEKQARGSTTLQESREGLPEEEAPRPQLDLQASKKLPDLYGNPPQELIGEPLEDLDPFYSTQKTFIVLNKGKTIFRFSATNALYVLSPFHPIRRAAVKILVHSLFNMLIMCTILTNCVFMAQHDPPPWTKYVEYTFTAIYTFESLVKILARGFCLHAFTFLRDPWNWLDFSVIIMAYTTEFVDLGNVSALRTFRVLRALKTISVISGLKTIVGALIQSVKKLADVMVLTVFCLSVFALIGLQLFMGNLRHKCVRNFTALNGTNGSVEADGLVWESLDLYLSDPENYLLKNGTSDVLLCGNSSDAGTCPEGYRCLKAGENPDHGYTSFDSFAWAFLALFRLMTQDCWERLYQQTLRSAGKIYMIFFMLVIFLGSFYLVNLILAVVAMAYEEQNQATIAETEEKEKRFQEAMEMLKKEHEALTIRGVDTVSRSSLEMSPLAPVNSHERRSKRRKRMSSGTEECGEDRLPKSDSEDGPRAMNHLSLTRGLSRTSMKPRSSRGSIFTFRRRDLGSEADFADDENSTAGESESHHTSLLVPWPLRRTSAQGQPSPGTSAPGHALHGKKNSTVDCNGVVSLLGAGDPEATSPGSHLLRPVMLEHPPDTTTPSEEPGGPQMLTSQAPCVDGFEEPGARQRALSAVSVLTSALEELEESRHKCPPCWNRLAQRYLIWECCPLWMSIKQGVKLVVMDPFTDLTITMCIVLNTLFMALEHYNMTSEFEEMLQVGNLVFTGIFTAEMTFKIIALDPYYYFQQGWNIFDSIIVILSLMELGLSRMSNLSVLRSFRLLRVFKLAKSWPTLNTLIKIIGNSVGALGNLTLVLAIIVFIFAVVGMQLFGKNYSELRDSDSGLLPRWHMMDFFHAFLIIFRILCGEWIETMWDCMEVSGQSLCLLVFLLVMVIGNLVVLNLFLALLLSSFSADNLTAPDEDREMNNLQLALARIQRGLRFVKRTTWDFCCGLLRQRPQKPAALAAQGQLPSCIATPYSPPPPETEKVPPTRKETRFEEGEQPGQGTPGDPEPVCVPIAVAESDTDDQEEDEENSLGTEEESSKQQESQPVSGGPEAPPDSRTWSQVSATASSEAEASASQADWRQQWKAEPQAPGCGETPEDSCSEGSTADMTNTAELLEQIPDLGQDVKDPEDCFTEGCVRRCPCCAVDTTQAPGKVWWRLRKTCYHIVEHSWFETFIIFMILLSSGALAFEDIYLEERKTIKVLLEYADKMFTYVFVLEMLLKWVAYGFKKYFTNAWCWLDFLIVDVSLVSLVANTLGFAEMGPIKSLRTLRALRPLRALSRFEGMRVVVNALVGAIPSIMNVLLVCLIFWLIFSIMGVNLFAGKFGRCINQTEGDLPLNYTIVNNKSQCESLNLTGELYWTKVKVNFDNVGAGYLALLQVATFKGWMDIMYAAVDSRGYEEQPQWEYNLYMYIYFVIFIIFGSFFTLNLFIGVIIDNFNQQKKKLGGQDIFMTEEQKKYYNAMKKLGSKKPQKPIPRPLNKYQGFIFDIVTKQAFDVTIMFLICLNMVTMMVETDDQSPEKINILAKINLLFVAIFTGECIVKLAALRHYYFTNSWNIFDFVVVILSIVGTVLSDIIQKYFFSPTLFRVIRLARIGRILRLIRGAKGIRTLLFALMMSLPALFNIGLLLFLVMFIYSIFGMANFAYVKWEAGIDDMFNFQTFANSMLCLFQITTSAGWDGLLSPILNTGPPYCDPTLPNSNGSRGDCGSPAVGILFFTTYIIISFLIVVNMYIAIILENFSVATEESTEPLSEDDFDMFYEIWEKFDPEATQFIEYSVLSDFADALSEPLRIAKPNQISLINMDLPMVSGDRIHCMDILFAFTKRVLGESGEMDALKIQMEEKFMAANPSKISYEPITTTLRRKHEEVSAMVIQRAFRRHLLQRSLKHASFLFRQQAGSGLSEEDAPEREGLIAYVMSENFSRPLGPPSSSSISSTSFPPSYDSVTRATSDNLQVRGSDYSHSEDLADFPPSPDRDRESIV

SMILES: CCCCN(CCCC)CC(=O)Nc1ccc(OC)cc1OC [Compound 6f, 2-(dibutylamine)-N-(2,4-dimethoxiphenyl)acetamide]
- Blockade of NaV1.5 in HEK cells [1]: significant blockade by 6f only at 100 μM
- Blockade of KV1.5 in HEK cells [2]: significant blockade by 6f only at 100 μM
